Results published in patent US20250312271A1, “GSK-3-BETA INHIBITOR-LOADED POLYMERIC SCAFFOLDS FOR THE TREATMENT OF MUSCLE INJURIES” (Rutgers, The State University of New Jersey, priority 2024, published 2025).
Entries after “also recorded” stand apart in the source; their conditions may differ.

Key:
[1] = system: adipose-derived stem cells (ADSCs); test: Oil Red O quantification of lipid formation in adipogenic ADSC cultures; assay type: cell-based
Method: (§1) Rosiglitazone (AVANDIA®) was added to the adipogenic medium at a final concentration of 1 μM before use. A PrestoBlue™ assay and a LIVE/DEAD viability/cytotoxicity kit were utilized to assess cell viability. Live and dead cell counts were obtained using a Celigo Image Cytometer. Cells were fixed in 4% PFA (paraformaldehyde) and stained with Oil Red O to measure lipid formation as a sign of adipocyte differentiation. Lipid formation was quantified by assessing the absorbance of Oil Red O at 515 nm.

[2] = system: bone marrow-derived human mesenchymal stem cells (hMSCs); test: Oil Red O quantification of lipid formation in adipogenic hMSC cultures; assay type: cell-based
Method: as §1

hMSCs [3] = test: PrestoBlue assay of hMSCs; assay type: cell-based, human; details: day 7, 14, 18, 0.5, 1.0, 1.5 μM
Method: as §1

hMSCs [4] = test: Live/Dead quantification of hMSCs; assay type: cell-based, human; details: day 7, 14, 18, 0.5, 1.0, 1.5 μM
Method: as §1

ADSCs [5] = test: PrestoBlue assay of ADSCs; assay type: cell-based; details: day 7, 14, 21, 0.5, 1.0, 1.5 μM
Method: as §1

ADSCs [6] = test: Live/Dead quantification of ADSCs; assay type: cell-based
Method: as §1

[7] = CHIR99021 release from polymeric scaffolds (HPLC); assay type: physicochemical
Method: In this study, GSK3β inhibitor-loaded scaffolds were fabricated via electrospinning and hydrogel formation. Pluronic F127 (0.08 g) was dissolved in 1.0 ml hexafluoroisopropanol (HFP) before adding the GSK3β inhibitor. Separately, poly(lactic-co-glycolic acid) PLGA (50:50) (16%, w/v) was dissolved in HFP. The polymer solutions (PLGA/CHIR-F127 or PLGA/CHIR) were electrospun at a flow rate of 1.0 ml/h with a 14 cm distance from the 18G needle tip to the cylindrical drum, and voltages +11/−2 kV were applied. Samples (13.5 mm diameter) punched out from scaffolds were immersed in GelMA (gelatin methacrylate) (5%, w/v)/CHIR solution for 20 seconds, then crosslinked using Lithium Phenyl (2,4,6-Trimethylbenzoyl) Phosphinate (LAP, 0.5% w/v) for 2 minutes on each side under 405 nm UV. Scaffolds comprise a rapidly degrading layer of GelMA for inhibitor delivery to the injury site, and a slow-degrading layer of PLGA to provide prolonged support for tissue regeneration.
Samples were submerged in water on a plate shaker at 400 rpm, with 200 μL replaced by fresh water at each time point.

[8] = system: human skeletal muscle cells (hSkMCs); test: Morphological assessment of lipid droplets in hSkMCs cultured with scaffolds; assay type: cell-based; details: drug in both GelMA and PLGA layers
Method: Human skeletal muscle cells ([…]) (5,000 cells/cm^2) were cultured in ADM and myogenic differentiation media (myodiff) with scaffolds at 200 rpm, with and without the drug in GelMA and PLGA layers to evaluate the relationship between drug concentrations and lipid formation resulting from the drug's release from the scaffold. PrestoBlueTM assay assessed cell viability.

3T3-L1 preadipocytes = details: cited from earlier work
PPARγ = details: 3T3-L1 preadipocytes; cited from earlier work

## Cc1cnc(-c2cnc(NCCNc3ccc(C#N)cn3)nc2-c2ccc(Cl)cc2Cl)[nH]1 [CHIR99021]
[1]; ADSCs at 21 days, One-Way ANOVA, P=0.00003
  difference in lipid formation in groups treated with CHIR99021: significant difference
[1]; ADSCs in ADM, CHIR99021 0.5, 1.0, 1.5 μM
  lipid droplet formation (Oil Red O): decreases; also recorded: inhibited lipid formation
[2]; hMSCs at 18 day, One-Way ANOVA, P=0.0000018
  difference in lipid formation in groups treated with CHIR99021: significant difference
[2]; hMSCs in ADM, CHIR99021 0.5, 1.0, 1.5 μM
  lipid droplet formation (Oil Red O): decreases
hMSCs [3]
  cellular metabolic activity (PrestoBlue): does not negatively alter
hMSCs [4]
  viability (Live/Dead): does not negatively alter
ADSCs [5]
  cellular metabolic activity (PrestoBlue): does not negatively alter
ADSCs [6]; day 7, 14, 21, 0.5, 1.0, 1.5 μM
  viability (Live/Dead): does not negatively alter
ADSCs [6]; day 21, 1.5 μM CHIR
  percent of dead cells, ADSCs in GM versus in 1.5 μM CHIR: No significant difference
[7]; from polymeric scaffolds (PLGA nanofibers), in water
  release kinetics profile: first-order
[7]; within 72 hours, from polymeric scaffolds
  release: ~70%
[8]
  lipid droplet suppression, CHIR99021 in both GelMA and PLGA layers: enhances this effect
3T3-L1 preadipocytes
  differentiation of 3T3-L1 preadipocytes (Oil Red O staining): blocked the differentiation
PPARγ
  PPARγ expression: induced
